Values after ≈ are worked out from the molar mass of the structure shown. “Also recorded” adds a separate entry of the source.
How the values were obtained:
[1] = MTT cytotoxicity assay, NIH 3T3; format: cell-based, mouse; details: mouse, NIH 3T3 mouse embryo fibroblast cells, 48 h incubation, read-out: Cytotoxicity (IC50 μg/mL) NIH 3T3 cells
Description: (§1) Cell cytotoxicity assay was performed using three different cell lines NIH 3T3 (mouse embryo, fibroblast cells), CC1 (rat, epithelial, liver cell) and MDBK (bovine kidney) cells using MTT (3-[4,5-dimethylthiazole-2-yl]-2,5-diphenyl-tetrazolium bromide) colorimetric assay. Briefly 3T3 were grown in DMEM, supplemented with 10% of fetal bovine serum (FBS), and 1% penicillin-streptomycin whereas CC1 (rat epithelial liver cells) were cultured in EMEM, 2 mM Glutamine, 1% Non-Essential Amino Acids (NEAA), 20 mM HEPES, 10% Foetal Bovine Serum (FBS) and 1% penicillin-streptomycin, and MDBK cells were grown in 10% of fetal bovine serum (FBS) in 75 cm^2 flask, and incubated in 5% CO2 incubator at 37° C. until they attain 70% confluency. Cells were then harvested by centrifuging at 200 g for 5 min at 25° C., counted using heamocytometer and their concentration was adjusted to 6×10^4 cells/mL. 100 μL of Cells were then plated in 96 well plate and incubated overnight. Next day the supernatant was carefully removed and 200 μL of fresh medium was added with three different concentration of compound (1, 10, 50) μg/mL. […] The extent of MTT reduction to formazan within cells was calculated by measuring the absorbance at 540 nm; using a micro plate reader (Spectra Max plus 340, Molecular Devices, Calif., USA). […] The percent inhibition was calculated by using the following formula: […]

[2] = test system: NIH 3T3 mouse fibroblast cells; assay: MTT cytotoxicity assay, NIH 3T3; format: cell-based
Description: as §1

[3] = MTT cytotoxicity assay, CC1; format: cell-based; details: rat, CC1 rat epithelial liver cells, 48 h incubation, read-out: Cytotoxicity (IC50 μg/mL) CC1 cells
Description: as §1

[4] = test system: non-activated Jurkat cell proliferation; assay: Jurkat T cell proliferation; format: cell-based; details: Homo sapiens; non-activated Jurkat cells; read-out: Jurkat T cell Proliferation (IC50 μg /mL)
Description: In order to monitor the effect of this compound on cellular immune response particularly on T cells, the compound was tested on thymidine incorporated T cell proliferation assay.

serum TNF-α = assay: Adjuvant induced arthritis model, serum TNF-α; format: in vivo, Sprague Dawley rats; details: AIA rats, daily intraperitoneal; Patuletin 25 mg/kg, indomethacin 5 mg/kg
Description: (§2) All studies were carried out using Female Sprague Dawley (SD) rats weighing 150-250 gms. Animals were kept at 21±2° C. and on a 12-h light/dark cycle, received standardized pelleted diet and tap water. Experiments were performed under the ethical guidelines of the International Association for the study of pain in conscious animals. Each group contains 12 animals with randomly distributed weights into each treatment group.
(§3) Arthritis was induced by injecting freshly prepared 100 μL of 1 mg suspension of lyophilized Mycobacterium tuberculosis H37Ra (MT H37Ra; DIFCO Laboratories, Detroit, Mich., USA), subcutaneously at the rat tail base using sterile hypodermic needle. Inoculation was carried out under anesthesia with a combination of 20 mg/kg ketamine and 5 mg/kg xylazine, injected intraperitoneally. Compound and the reference drug were administered daily, intraperitoneally using sterile syringes. The positive control received vehicle (5% DMSO+PBS) or saline only; treatment groups received test compounds (25 mg/kg), whereas reference group received indomethacin (5 mg/kg). The doses of the test compounds were selected after preliminary dose finding studies. […]
(§4) The quantitative measurement of TNF-α and IL-1β was done in serum of all groups of animals including arthritic and non-arthritic using commercial ELISA assay kits (Abcam, USA) according to the manufacturer's instructions. […]

serum IL-1β = assay: Adjuvant induced arthritis model, serum IL-1β; format: in vivo, Sprague Dawley rats; details: AIA rats, daily intraperitoneal; Patuletin 25 mg/kg, indomethacin 5 mg/kg
Description: as §2, §3, §4

rheumatoid factor = assay: Adjuvant induced arthritis model, serum RA factor; format: in vivo, Sprague Dawley rats; details: AIA rats, daily intraperitoneal; Patuletin 25 mg/kg, indomethacin 5 mg/kg
Description: as §2
Arthritis was induced by injecting freshly prepared 100 μL of 1 mg suspension of lyophilized Mycobacterium tuberculosis H37Ra (MT H37Ra; DIFCO Laboratories, Detroit, Mich., USA), subcutaneously at the rat tail base using sterile hypodermic needle. Inoculation was carried out under anesthesia with a combination of 20 mg/kg ketamine and 5 mg/kg xylazine, injected intraperitoneally. Compound and the reference drug were administered daily, intraperitoneally using sterile syringes. […]
Measurement of RA factor in rat serum was determined using Tina-quant RFII Kit (Roche Diagnostics, USA) and automated analyzers according to manufacturer's instructions. The test principle involves the reaction of latex bound heat inactivated IgG (antigen) with RF antibodies in the sample to form Ag/Ab complex resulting in agglutination which can be measured turbidimetrically.

[5] = test system: knee joints of arthritic rats; assay: Adjuvant induced arthritis model, histopathology of knee joints (H & E); format: in vivo, Sprague Dawley rats; details: H & E staining
Description: as §2
Arthritis was induced by injecting freshly prepared 100 μL of 1 mg suspension of lyophilized Mycobacterium tuberculosis H37Ra (MT H37Ra; DIFCO Laboratories, Detroit, Mich., USA), subcutaneously at the rat tail base using sterile hypodermic needle. Inoculation was carried out under anesthesia with a combination of 20 mg/kg ketamine and 5 mg/kg xylazine, injected intraperitoneally. Compound and the reference drug were administered daily, intraperitoneally using sterile syringes. The positive control received vehicle (5% DMSO+PBS) or saline only; treatment groups received test compounds (25 mg/kg), whereas reference group received indomethacin (5 mg/kg). The doses of the test compounds were selected after preliminary dose finding studies. The treatment was started on the same day after vaccination.
The animals were sacrificed at the end of the experiment and samples were taken from the knee joints. Sample fixation were done using 10% formalin following decalcification. The samples were then processed, embedded, cut, mounted and stained with hematoxylin and eosin (H & E) dye for microscopic evaluation.

## COc1c(O)cc2oc(-c3ccc(O)c(O)c3)c(O)c(=O)c2c1O [Patuletin, 3,5,7,3′,4′-pentahydroxy-6-methoxy flavones]
[1]
  IC50 at 48 h: 36.4 ± 6.9 µg/mL (≈ 110 µM)
[2]
  cytotoxicity on NIH 3T3 mouse fibroblast cells (in words): no cytotoxicity
[3]
  IC50 at 48 h: 5.2 µg/mL (≈ 15.7 µM)
[4]
  IC50: 3.47 µg/mL (≈ 10.4 µM)
Serum TNF-α
  level of TNF-α in serum versus arthritic control group: marked decrease
Serum IL-1β
  level of IL-1β in serum versus arthritic control group: significant decrease; also recorded: marked decrease
Rheumatoid factor
  level of RA factor (rheumatoid factor) in serum versus arthritic control group: marked decrease
[5]
  histopathology of knee joints (in words) versus arthritic control rats: less infiltration of lymphocytes and minimal bone destruction
[5]; normal control score 0, arthritic control score 4
  histopathology score of knee joints: 2

Source: patent publication US20150025131A1 (priority 2013, published 2015)
